Series [1] addresses T1, κ-opioid receptor (Homo sapiens, UniProt P41145). Description: β-Arr2 activity response in U2OS cells, κ-opioid receptor. The format is cell-based. Details: expressed in transfected cells; host or cells: U2OS (U-2 OS). How it is done: (§1) TABLE 4 provides activity response of certain Compounds of the present disclosure to the μ- and κ-opioid receptors that was determined in the above-described functional assays using U2OS cells.

Series [2] has as its target T1, κ-opioid receptor. Put plainly: [35S]GTPγS functional assay, κ-opioid receptor (HEK-293 or CHO cells). The format is biochemical. Set-up: made in house; host or cells: HEK-293 or CHO. As for the experimental part: Membranes from HEK-293 cells, CHO or U-2 OS cells expressing the recombinant human kappa opioid receptor (κ) were prepared by lysing cells in ice cold hypotonic buffer (2.5 mM MgCl2, 50 mM HEPES, pH 7.4) (10 mL/10 cm dish) followed by homogenization with a tissue grinder/Teflon pestle. Membranes were collected by centrifugation at 30,000×g for 15 min at 4° C. and pellets were resuspended in hypotonic buffer to a final concentration of 1-3 mg/mL. Protein concentrations were determined using the BioRad protein assay reagent with bovine serum albumen as standard. Aliquots of κ receptor membranes were stored at −80° C.
Functional [^35S]GTPγS binding assays were conducted as follows. κ opioid receptor membrane solution was prepared by sequentially adding final concentrations of 0.026 μg/μl κ membrane protein (in-house), 10 μg/mL saponin, 3 μM GDP and 0.20 nM [^35S]GTPγS to binding buffer (100 mM NaCl, 10 mM MgCl2, 20 mM HEPES, pH 7.4) on ice. […] Fifty μl/well scintillation cocktail (Perkin Elmer, Shelton, Conn.) was added and plates were counted in a Packard Top-Count for 1 min/well.
(§2) TABLE 3 provides activity response of certain Compounds of the present disclosure to the μ- and κ-opioid receptors that was determined in the above-described functional assays using HEK-293 or CHO cells.

For series [3], the target named is T2, μ-opioid receptor (Homo sapiens, UniProt P35372). Description: [35S]GTPγS functional assay, μ-opioid receptor (HEK-293 or CHO cells). The format is biochemical. Details: made in house; host or cells: HEK-293 or CHO. As for the experimental part:
[^35S]GTPγS functional assays were conducted using freshly thawed μ-receptor membranes prepared in-house from a cell line expressing recombinant μ opioid receptor in a HEK-293, CHO or U-2 OS cell background, or purchased from a commercial source (Perkin Elmer, Shelton, Conn.; or DiscovRx, Fremont, Calif.). Assay reactions were prepared by sequentially adding the following reagents to binding buffer (100 mM NaCl, 10 mM MgCl2, 20 mM HEPES, pH 7.4) on ice (final concentrations indicated): membrane protein (0.026 mg/mL), saponin ([…]), GDP ([…]) and [^35S]GTPγS (0.20 nM; Perkin Elmer, Shelton, Conn.). The prepared membrane solution (190 μl/well) was transferred to 96-shallow well polypropylene plates containing 10 μl of 20× concentrated stock solutions of the agonist [D-Ala^2, N-methyl-Phe^4 Gly-ol^5]-enkephalin (DAMGO) prepared in dimethyl sulfoxide (DMSO). Plates were incubated for 30 min at about 25° C. with shaking. […] BetaScint scintillation cocktail (Perkin Elmer, Shelton, Conn.) was added (50 μl/well) and plates were counted using a Packard Top-Count for 1 min/well. Data were analyzed using the sigmoidal dose-response curve fitting functions in GraphPad PRISM v. […]
as §2

Series [4] concerns Sprague-Dawley rats. Description: Hot plate analgesia in rats (observation of sedation). Format: in vivo, rat. As for the experimental part:
To assess the actions of a Compound of the present disclosure for the treatment or prevention of acute pain, the rat hot plate test can also be used. Rats are tested using a hot plate apparatus consisting of a clear plexiglass cylinder with a heated metal floor maintained at a temperature of 48-52° C. (Model 7280, commercially available from Ugo Basile of Italy). […] Hot plate latencies are measured immediately before (pre-treatment) and 1, 3, and 5 hours following administration of a Compound of the present disclosure. The nocifensive behavioral endpoint is defined as any of the following: 1) paw withdrawal, either as a sustained lift or with shaking or licking; 2) alternating foot lifting; 3) escape or attempted escape from the testing device; or 4) vocalization. Data are expressed as response latency(s) and the percentage of the maximal possible effect is calculated as described above for the tail flick test. […]
Male, Sprague-Dawley rats (Harlan, weight 211-246 g; n=5-10/group) were baselined (“BL”) for latency on a hot plate which was set to 52° C. the day prior to dosing. […] The next day, vehicle (0.5% MC) po, Compound 1 po; or morphine sc, the positive control, were administered and thermal latency was assessed 1, 3, and 5 hours after dosing.
Data were analyzed by a two-way ANOVA using a Bonferroni Multiple Comparisons test, where *P<0.05 and ****P<0.0001 vs vehicle. […]

Series [5] addresses T2, μ-opioid receptor. Put plainly: β-Arr2 activity response in U2OS cells, μ-opioid receptor. The format is cell-based. How it is done: as §1
Series [6] has as its system Sprague-Dawley rats. Put plainly: Conditioned Place Preference (CPP) in rats. The following applies: po in 0.5% MC, day 8, one-way ANOVA. Format: in vivo, rat. An excerpt:
Conditioned Place Preference (CPP) test is a test typically used to measure drug liking.
Male, Sprague-Dawley rats (Harlan, weight 213-240 g) at the beginning of the dosing paradigm were baselined (“BL”) for initial preference (pretest; day 1) using automated conditioning chambers (MedAssociates, Fairfax, Vt.); n=10/group. An unbiased counterbalanced design was used in which rats were randomly assigned to each group with respect to compartment pairings based on weight.
Compound 1 was formulated in 0.5% MC and administered po., while oxycodone, the positive control was dissolved in saline and administered sc.
During the first conditioning session, half of the rats were confined to the black compartment paired with either vehicle (0.5% MC) po, oxycodone sc, or Compound 1 po administration, while the other half were placed in white compartment with similar pairings.
Rats were conditioned on alternate days for 6 total sessions (3 vehicle/3 oxycodone or Compound 1). Control rats received vehicle at each conditioning session. […]
Conditioned Place Preference (CPP) was determined on day 8, and is represented as the difference between the time (seconds) the rat spent in the drug-paired and vehicle-paired compartments. Data are represented as the means±S.E.M., and were analyzed by a one-way ANOVA where *P<0.05 vs vehicle.

We go through two compounds from patent US10745402B2, “Morphinan derivatives and use thereof” (PURDUE PHARMA L.P., priority 2017, dated 2020).

SMILES strings stand for the structures. Bounds are passed on as bounds.

T1 sequence (P41145 whole entry): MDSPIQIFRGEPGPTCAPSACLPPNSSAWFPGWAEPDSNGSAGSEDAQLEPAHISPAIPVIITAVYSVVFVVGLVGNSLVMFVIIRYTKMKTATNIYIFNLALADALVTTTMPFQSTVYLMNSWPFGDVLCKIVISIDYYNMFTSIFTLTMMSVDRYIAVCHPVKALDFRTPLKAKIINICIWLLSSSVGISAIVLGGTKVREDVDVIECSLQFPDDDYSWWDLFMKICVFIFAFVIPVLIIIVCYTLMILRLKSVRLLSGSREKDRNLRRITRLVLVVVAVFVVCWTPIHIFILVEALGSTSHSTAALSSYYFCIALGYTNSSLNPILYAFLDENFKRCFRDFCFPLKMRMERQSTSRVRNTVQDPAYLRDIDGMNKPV
T2 sequence (P35372 whole entry, species assumed): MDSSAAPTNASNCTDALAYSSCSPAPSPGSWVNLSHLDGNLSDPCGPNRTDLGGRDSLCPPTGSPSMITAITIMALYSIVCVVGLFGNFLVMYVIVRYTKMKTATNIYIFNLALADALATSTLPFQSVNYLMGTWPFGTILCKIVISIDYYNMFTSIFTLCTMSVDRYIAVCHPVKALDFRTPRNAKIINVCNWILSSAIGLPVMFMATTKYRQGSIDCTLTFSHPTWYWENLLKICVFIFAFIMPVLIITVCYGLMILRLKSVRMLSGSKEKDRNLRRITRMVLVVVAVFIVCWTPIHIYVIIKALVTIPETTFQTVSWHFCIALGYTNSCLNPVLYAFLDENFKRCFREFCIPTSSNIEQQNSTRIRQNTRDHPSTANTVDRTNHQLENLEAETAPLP

Regarding `CN1CC[C@]23CCCC[C@@]2(O)[C@H]1Cc1ccc(C(N)=O)cc13` [Compound 1, (4bS,8aS,9R)-8a-hydroxy-11-methyl-6,7,8,8a,9,10-hexahydro-5H-9,4b-(epiminoethano)phenanthrene-3-carboxamide], the EC50 is over 20000 nM on κ-opioid receptor [1], 620 ± 91.1 nM at κ-opioid receptor [2], 44.2 ± 11.9 nM at μ-opioid receptor [3] and 36.7 ± 5.4 nM on μ-opioid receptor [5]. The Emax at κ-opioid receptor [1] (U2OS cells) is -0.83 ± 0.17%; on κ-opioid receptor [2] (HEK-293 or CHO cells, relative to U69,593, read-out: GTPγD κ Emax), 14.9 ± 0.63%; on μ-opioid receptor [3] (HEK-293 or CHO cells, relative to DAMGO, read-out: GTPγD μ Emax), 50.5 ± 0.95%; at μ-opioid receptor [5] (U2OS cells) it was 8.58 ± 0.3%. Also, the “appearance of animals (sedation) in hot plate study” value in the series with Sprague-Dawley rats [4] (30-75 mg/kg po) was “appeared to be sedate”. In the series on Sprague-Dawley rats [6], the “Conditioned Place Preference compared to the vehicle group” value was “not statistically significant”.

As for `CN1CC[C@]23c4c5ccc(O)c4O[C@H]2[C@@H](O)C=C[C@H]3[C@H]1C5` [morphine, reference compound], the “appearance of animals (sedation) in hot plate study” value in the series with Sprague-Dawley rats [4] (sc, positive control) is “appeared to be sedate”.

For orientation: EC50 means the concentration that produces a half-maximal response. Usually Emax stands for the greatest response seen or fitted, relative to the assay's reference.
